Read-outs that look alike come from different tables or passages of the source. *1 amine or outer side, *2 acyl side, *3 side chain or, on linkers, in order; H or OH if unused. Where a SMILES comes first, the peptide text is derived from it. Bridges are numbered along the chain shown (N, C = ends). [ ]: non-standard residue; d: D form. The star is where a group is joined. C20 diacid = O=C(O)CCCCCCCCCCCCCCCCCCC(=O)*; γGlu = O=C(O)[C@H](CCC(=O)[*:2])N[*:1]; Hyp = O=C(O)[C@@H]1C[C@@H](O)CN1; NMeI = CC[C@H](C)[C@H](NC)C(=O)O; Sar = CNCC(=O)O
Experiments:
[1] = Assessment of solubility (turbidity absorbance at 325 nm); format: physicochemical; settings: named as exception to solubility ≥1 mg/ml
Method: A stock solution of the test peptide (2 mg/ml; determined from the weighed amount of peptide) in demineralized water adjusted to pH 2.5 with HCl was prepared, and aliquots were diluted 1:1 in 100 mM acetate buffer (pH 4.0 and pH 5.0), 100 mM histidine buffer (pH 6.0 and pH 7.0) and 100 mM phosphate buffer (pH 6.0, pH 7.0 and pH7.5), respectively, and loaded in a standard flat-bottom, non-sterile 96-well UV Microplate. The absorbance of samples (single samples, n=1) at 280 and 325 nm was measured in an absorbance-based plate reader, which was preheated to ambient temperature (typically 25° C.). The turbidity absorbance criterion for a peptide solubility of ≥1 mg/ml was an absorbance at 325 nm of s 0.02 absorbance units (which is 5 to 6 times the standard deviation of 8 buffer samples in a plate).

[2] = Assessment of chemical stability (RP-HPLC normalized purity); format: physicochemical; settings: 7 days, 40° C., Table 1
Summary of the method: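 Purity after 7 days at 40° C is expressed relative to T=0 (set to 100) for each pH. Samples at 0.2 mg/ml, pH 4, 6, 7.5 or 9, analyzed by RP-HPLC with UV 220 nm on C8 (ammonium formate) or C18 (TFA) gradients.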

[3] = Assessment of physical stability (Thioflavin T fibrillation); format: physicochemical; parameters: key: FND = fibrillation not detected; FD = fibrillation detected; settings: 1 mg/ml, 40° C., ThT
Summary of the method: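 Fibrillation lag-time, in hours, taken where regressions of the initial stable phase and the growth phase intersect. ThT (40 μM) fluorescence monitored at 40 °C for 96 h, 10-min reads each preceded by 300 s mixing. Peptide at 1 mg/ml in 50 mM buffers: phosphate or histidine pH 7.0, acetate pH 4.0.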

[4] = molecular target: T1, human calcitonin receptor (hCTR2) (Homo sapiens, UniProt P30988); experiment: hCTR2 cAMP assay (AlphaScreen) in COS7 cells; format: cell-based; settings: cAMP induction, COS7 cells expressing hCTR2; Table 1; read-out: hCTR2 EC50
T1 construct: expressed in transfected cells
T1 sequence (P30988 25-474): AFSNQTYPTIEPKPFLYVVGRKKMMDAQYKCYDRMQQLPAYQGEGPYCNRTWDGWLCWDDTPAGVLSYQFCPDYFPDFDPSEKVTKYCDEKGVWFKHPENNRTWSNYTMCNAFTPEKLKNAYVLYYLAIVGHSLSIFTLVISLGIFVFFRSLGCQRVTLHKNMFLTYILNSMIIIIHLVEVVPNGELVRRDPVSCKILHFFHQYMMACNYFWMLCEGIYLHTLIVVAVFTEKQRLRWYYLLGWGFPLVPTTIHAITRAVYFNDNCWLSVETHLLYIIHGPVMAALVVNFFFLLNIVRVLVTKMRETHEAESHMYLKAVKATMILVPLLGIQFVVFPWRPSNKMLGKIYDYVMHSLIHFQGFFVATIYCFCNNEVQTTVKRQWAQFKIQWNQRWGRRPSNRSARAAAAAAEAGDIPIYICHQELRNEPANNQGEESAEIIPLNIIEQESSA
Summary of the method: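 cAMP induction, read by AlphaScreen after lysis, gives EC50 values via 4PL curve fitting. Peptides were applied at rising concentrations for 15 min at 37 °C, with IBMX and 0.1% casein in HEPES-buffered Tyrode pH 7.4, to COS7 cells (no endogenous RAMPs) stably expressing human CTR2.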

[5] = molecular target: T2, human amylin receptor 3 (hAMYR3), hCTR2 co-expressed with hRAMP3 (Homo sapiens, UniProt O60896+P30988); experiment: hAMYR3 cAMP assay (AlphaScreen) in COS7 cells; format: cell-based; settings: cAMP induction, COS7 cells expressing hAMYR3; Table 1; read-out: hAMYR3 EC50
T2 construct: expressed in transfected cells
T2 sequence (P30988 25-474): T1 sequence (P30988 25-474)
T2 sequence (O60896 24-148 partner): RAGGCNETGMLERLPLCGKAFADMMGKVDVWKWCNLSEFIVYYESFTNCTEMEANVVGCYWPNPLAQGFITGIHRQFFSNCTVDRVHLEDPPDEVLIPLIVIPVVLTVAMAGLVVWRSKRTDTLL
Summary of the method: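 EC50 values derive from 4PL curve fits of cAMP (AlphaScreen) in lysates of RAMP-naive COS7 cells stably carrying hCTR2 plus hRAMP3. Peptide dilution series were applied for 15 min at 37 °C in pH 7.4 Tyrode buffer containing 100 µM IBMX and 0.1% casein.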

[6] = pH 6.0, read-out: solubility at pH 6.0
[7] = phosphate buffer, pH 7.5, read-out: solubility at pH 7.5

solubility [1, 6] [µg/mL] | Normalized purity after 7 days, 40° C., pH 4 ([2]; pH 4, 0.2 mg/ml) | Normalized purity after 7 days, 40° C., pH 6 ([2]; pH 6, 0.2 mg/ml) | Normalized purity after 7 days, 40° C., pH 7.5 ([2]; pH 7.5, 0.2 mg/ml) | Normalized purity after 7 days, 40° C., pH 9 ([2]; pH 9, 0.2 mg/ml) | Fibrillation pH 4.0 (Ac) ([3]; 50 mM acetate buffer pH 4.0, 96 hours) | Fibrillation pH 7.0 (His) ([3]; 50 mM histidine buffer pH 7.0, 96 hours) | Fibrillation pH 7.0 (Phos.) ([3]; 50 mM phosphate buffer pH 7.0, 96 hours) | EC50 [4] [pM] | solubility ([1]; pH 7.0, read-out: solubility at pH 7.0) [µg/mL] | solubility [1, 7] [µg/mL] | EC50 [5] [pM] | SMILES
< 1000 | A (A = >90%) | A (A = >90%) | B (B = 70-90%) | B (B = 70-90%) | FND | FD | FD | 160 | – | – | – | CC[C@H](C)[C@@H](C(=O)N[C@@H](CC(C)C)C(=O)N[C@@H](CO)C(=O)N[C@@H](CO)C(=O)N[C@H](C(=O)N[C@@H](CCC(=O)O)C(=O)N[C@H](C(=O)NCC(=O)N[C@@H](CO)C(=O)N[C@@H](Cc1ccccc1)C(=O)N[C@H](C(=O)N1C[C@H](O)C[C@H]1C(N)=O)[C@@H](C)O)C(C)C)[C@@H](C)O)N(C)C(=O)[C@H](C)NC(=O)CN(C)C(=O)[C@H](Cc1ccccc1)NC(=O)[C@H](CO)NC(=O)[C@H](CO)NC(=O)[C@H](CCCNC(=N)N)NC(=O)[C@@H](NC(=O)[C@H](CC(C)C)NC(=O)[C@H](Cc1ccccc1)NC(=O)[C@H](Cc1c[nH]cn1)NC(=O)[C@H](C)NC(=O)[C@H](CC(C)C)NC(=O)[C@H](CCCNC(=N)N)NC(=O)[C@H](CCC(=O)O)NC(=O)[C@@H](NC(=O)[C@H](C)NC(=O)[C@@H]1CSSC[C@H](NC(=O)[C@H](CCCNC(=N)N)NC(=O)CC[C@H](NC(=O)CCCCCCCCCCCCCCCCCCC(=O)O)C(=O)O)C(=O)NCC(=O)N[C@@H]([C@@H](C)O)C(=O)N[C@@H](C)C(=O)N[C@@H]([C@@H](C)O)C(=O)N1)[C@@H](C)O)[C@@H](C)O [Compound 10, [19CD]-isoGlu-R-C( )-GTAT-C( )-ATERLAHFLTRSSF-Gly(Me)-A-Ile(Me)-LSSTEVGSFT-Hyp-NH2] ({C20 diacid-γGlu}-RCGTATCATERLAHFLTRSSF[Sar]A[NMeI]LSSTEVGSFT[Hyp]-NH2; disulfide 2-7)
– | – | – | – | – | – | – | – | 90 | < 1000 | < 1000 | 290 | CC[C@H](C)[C@@H](C(=O)N[C@@H](CC(C)C)C(=O)N[C@@H](CO)C(=O)N[C@@H](CO)C(=O)N[C@H](C(=O)N[C@@H](CCC(=O)O)C(=O)N[C@H](C(=O)NCC(=O)N[C@@H](CO)C(=O)N[C@@H](CO)C(=O)N[C@H](C(=O)N1C[C@H](O)C[C@H]1C(N)=O)[C@@H](C)O)C(C)C)[C@@H](C)O)N(C)C(=O)[C@H](C)NC(=O)CN(C)C(=O)[C@H](Cc1ccccc1)NC(=O)[C@H](CO)NC(=O)[C@H](CO)NC(=O)[C@H](CCCNC(=N)N)NC(=O)[C@@H](NC(=O)[C@H](CC(C)C)NC(=O)[C@H](Cc1ccccc1)NC(=O)[C@H](Cc1c[nH]cn1)NC(=O)[C@H](C)NC(=O)[C@H](CC(C)C)NC(=O)[C@H](CCCNC(=N)N)NC(=O)[C@H](CCC(=O)O)NC(=O)[C@@H](NC(=O)[C@H](C)NC(=O)[C@@H]1CSSC[C@H](NC(=O)[C@H](CCCNC(=N)N)NC(=O)CC[C@H](NC(=O)CCCCCCCCCCCCCCCCCCC(=O)O)C(=O)O)C(=O)NCC(=O)N[C@@H]([C@@H](C)O)C(=O)N[C@@H](C)C(=O)N[C@@H]([C@@H](C)O)C(=O)N1)[C@@H](C)O)C(C)C [Compound 31, [19CD]-isoGlu-R-C( )-GTAT-C( )-ATERLAHFLVRSSF-Gly(Me)-A-Ile(Me)-LSSTEVGSST-Hyp-NH2] ({C20 diacid-γGlu}-RCGTATCATERLAHFLVRSSF[Sar]A[NMeI]LSSTEVGSST[Hyp]-NH2; disulfide 2-7)
< 1000 | – | – | – | – | – | – | – | 60 | – | < 1000 | 120 | CC[C@H](C)[C@@H](C(=O)N[C@@H](CC(C)C)C(=O)N[C@@H](CO)C(=O)N[C@@H](CO)C(=O)N[C@H](C(=O)N[C@@H](CCC(=O)O)C(=O)N[C@H](C(=O)NCC(=O)N[C@@H](CO)C(=O)N[C@@H](CO)C(=O)N[C@H](C(=O)N1CCC[C@H]1C(N)=O)[C@@H](C)O)C(C)C)[C@@H](C)O)N(C)C(=O)[C@H](C)NC(=O)CN(C)C(=O)[C@H](Cc1ccccc1)NC(=O)[C@H](CO)NC(=O)[C@H](CO)NC(=O)[C@H](CCCNC(=N)N)NC(=O)[C@@H](NC(=O)[C@H](CC(C)C)NC(=O)[C@H](Cc1ccccc1)NC(=O)[C@H](Cc1c[nH]cn1)NC(=O)[C@H](C)NC(=O)[C@H](CC(C)C)NC(=O)[C@H](CCCNC(=N)N)NC(=O)[C@H](CCC(=O)O)NC(=O)[C@@H](NC(=O)[C@H](C)NC(=O)[C@@H]1CSSC[C@H](NC(=O)[C@H](CCCNC(=N)N)NC(=O)CC[C@H](NC(=O)CCCCCCCCCCCCCCCCCCC(=O)O)C(=O)O)C(=O)NCC(=O)N[C@@H]([C@@H](C)O)C(=O)N[C@@H](C)C(=O)N[C@@H]([C@@H](C)O)C(=O)N1)[C@@H](C)O)C(C)C [Compound 38, [19CD]-isoGlu-R-C( )-GTAT-C( )-ATERLAHFLVRSSF-Gly(Me)-A-Ile(Me)-LSSTEVGSSTP-NH2] ({C20 diacid-γGlu}-RCGTATCATERLAHFLVRSSF[Sar]A[NMeI]LSSTEVGSSTP-NH2; disulfide 2-7)

Source: US20210115104A1, “AMYLIN ANALOGUES” (Zealand Pharma A/S, priority 2015, published 2021)
